Results published in the NIST ThermoML archive (doi:10.1021/acs.jced.5b00242).

Key:
[1] = refractive index (Na D-line) (dimensionless); conditions: 101 kPa, Liquid, Standard Abbe refractometry
[2] = Liquid; for viscosity: 101 kPa, Stabinger Viscometer; for mass density: 101.33 kPa, Vibrating tube method
[3] = xn = mol fraction of the nth substance listed; conditions: 101 kPa, Liquid, x1 = 1; for mass density: Vibrating tube method
[4] = refractive index (Na D-line) (dimensionless); xn = mol fraction of the nth substance listed; conditions: 101 kPa, Liquid, Standard Abbe refractometry, x1 = 1

CCn1cc[n+](C)c1.O=C([O-])[C@@H]1CCCN1 [1-ethyl-3-methyl-1H-imidazolium L-prolinate]
Conditions	mass density, [2] [kg/m3]	refractive index, [1]	viscosity, [2] [mPa·s]
293.15 K	1145.9	1.52291	1928.4
298.15 K	1142.8	1.52151	1194.6
303.15 K	1139.6	1.52009	771.51
308.15 K	1136.4	1.5187	517.61
313.15 K	1133.2	1.51731	359.21
318.15 K	1130.1	1.51591	256.92
323.15 K	1127.1	1.51454	188.66
328.15 K	1124	1.51315	141.76
333.15 K	1121	1.51177	108.85
338.15 K	1118	1.51035	85.12
343.15 K	1115	1.50897	67.69
348.15 K	1112	1.50757	54.73
353.15 K	1109.1	1.5062	44.89

CCn1cc[n+](C)c1.N#C[C-](C#N)C#N [1-ethyl-3-methyl-1H-imidazolium tricyanomethanide] + CCn1cc[n+](C)c1.NCCS(=O)(=O)[O-]
[3], Stabinger Viscometer
Conditions	viscosity [mPa·s]
293.15 K	16.62
298.15 K	14.19
303.15 K	12.18
308.15 K	10.58
313.15 K	9.02
318.15 K	8.2
323.15 K	7.31
328.15 K	6.56
333.15 K	5.72
338.15 K	5.38
343.15 K	4.91
348.15 K	4.5
353.15 K	3.98

Conditions	mass density, [3] [kg/m3]	refractive index, [4]
293.15 K	1084.6	1.51454
298.15 K	1081	1.51286
303.15 K	1077.5	1.51114
308.15 K	1073.9	1.50938
313.15 K	1070.4	1.50765
318.15 K	1067.1	1.50595
323.15 K	1063.7	1.50419
328.15 K	1060.3	1.50255
333.15 K	1056.9	1.50087
338.15 K	1053.6	1.49921
343.15 K	1050.2	1.49757
348.15 K	1046.8	1.49593
353.15 K	1043.4	1.49429

CCn1cc[n+](C)c1.N#C[C-](C#N)C#N [1-ethyl-3-methyl-1H-imidazolium tricyanomethanide] + CC[n+]1ccn(C)c1.N[C@@H](CO)C(=O)[O-]
[3], Stabinger Viscometer
Conditions	viscosity [mPa·s]
293.15 K	16.62
298.15 K	14.19
303.15 K	12.18
308.15 K	10.58
313.15 K	9.02
318.15 K	8.2
323.15 K	7.31
328.15 K	6.56
333.15 K	5.72
338.15 K	5.38
343.15 K	4.91
348.15 K	4.5
353.15 K	3.98

Conditions	mass density, [3] [kg/m3]	refractive index, [4]
293.15 K	1084.6	1.51454
298.15 K	1081	1.51286
303.15 K	1077.5	1.51114
308.15 K	1073.9	1.50938
313.15 K	1070.4	1.50765
318.15 K	1067.1	1.50595
323.15 K	1063.7	1.50419
328.15 K	1060.3	1.50255
333.15 K	1056.9	1.50087
338.15 K	1053.6	1.49921
343.15 K	1050.2	1.49757
348.15 K	1046.8	1.49593
353.15 K	1043.4	1.49429

CCn1cc[n+](C)c1.N#C[C-](C#N)C#N [1-ethyl-3-methyl-1H-imidazolium tricyanomethanide] + CCn1cc[n+](C)c1.O=C([O-])[C@@H]1CCCN1
[3], Stabinger Viscometer
Conditions	viscosity [mPa·s]
293.15 K	16.62
298.15 K	14.19
303.15 K	12.18
308.15 K	10.58
313.15 K	9.02
318.15 K	8.2
323.15 K	7.31
328.15 K	6.56
333.15 K	5.72
338.15 K	5.38
343.15 K	4.91
348.15 K	4.5
353.15 K	3.98

Conditions	mass density, [3] [kg/m3]	refractive index, [4]
293.15 K	1084.6	1.51454
298.15 K	1081	1.51286
303.15 K	1077.5	1.51114
308.15 K	1073.9	1.50938
313.15 K	1070.4	1.50765
318.15 K	1067.1	1.50595
323.15 K	1063.7	1.50419
328.15 K	1060.3	1.50255
333.15 K	1056.9	1.50087
338.15 K	1053.6	1.49921
343.15 K	1050.2	1.49757
348.15 K	1046.8	1.49593
353.15 K	1043.4	1.49429

CCn1cc[n+](C)c1.N#C[C-](C#N)C#N [1-ethyl-3-methyl-1H-imidazolium tricyanomethanide] + CCn1cc[n+](C)c1.NCC(=O)[O-]
[3], Stabinger viscometer
Conditions	viscosity [mPa·s]
293.15 K	16.62
298.15 K	14.19
303.15 K	12.18
308.15 K	10.58
313.15 K	9.02
318.15 K	8.2
323.15 K	7.31
328.15 K	6.56
333.15 K	5.72
338.15 K	5.38
343.15 K	4.91
348.15 K	4.5
353.15 K	3.98

Conditions	mass density, [3] [kg/m3]	refractive index, [4]
293.15 K	1084.6	1.51454
298.15 K	1081	1.51286
303.15 K	1077.5	1.51114
308.15 K	1073.9	1.50938
313.15 K	1070.4	1.50765
318.15 K	1067.1	1.50595
323.15 K	1063.7	1.50419
328.15 K	1060.3	1.50255
333.15 K	1056.9	1.50087
338.15 K	1053.6	1.49921
343.15 K	1050.2	1.49757
348.15 K	1046.8	1.49593
353.15 K	1043.4	1.49429
